Measured values reported in patent US20240366634A1, “METHODS FOR THE TREATMENT OF CB1-, TRPA1- AND TRPV1-DEPENDENT CONDITIONS” (BUZZELET DEVELOPMENT AND TECHNOLOGIES LTD., priority 2021, published 2024).

Legend:
Type in all cases: cell-based
[1] = molecular target: T1, CB1 receptor (Homo sapiens, UniProt P21554); test: CB1 receptor activation by THC in combination with terpenes, Xenopus oocyte GIRK current; settings: terpene:THC weight/weight ratio 1:10; ratio of THC concentrations evoking 50% of maximal response with and without terpene
T1 construct: expressed in transfected cells; host or cells: Xenopus laevis oocytes injected with cRNA
T1 sequence (P21554 whole entry): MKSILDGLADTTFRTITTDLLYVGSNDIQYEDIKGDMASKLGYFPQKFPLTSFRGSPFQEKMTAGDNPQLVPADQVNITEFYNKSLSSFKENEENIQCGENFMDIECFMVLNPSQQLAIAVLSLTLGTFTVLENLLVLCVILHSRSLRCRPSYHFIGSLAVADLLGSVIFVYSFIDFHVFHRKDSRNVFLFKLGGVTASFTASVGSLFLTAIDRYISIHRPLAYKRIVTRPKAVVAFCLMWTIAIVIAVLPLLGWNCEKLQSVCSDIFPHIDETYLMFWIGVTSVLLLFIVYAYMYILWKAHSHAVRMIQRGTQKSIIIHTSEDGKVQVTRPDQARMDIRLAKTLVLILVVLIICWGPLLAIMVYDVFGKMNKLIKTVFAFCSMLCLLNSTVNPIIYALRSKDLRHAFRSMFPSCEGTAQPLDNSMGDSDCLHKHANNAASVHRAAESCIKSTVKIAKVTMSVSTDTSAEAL
Method: Xenopus oocytes were used as a functional expression system, as described in Example 1.
Terpenes were administered together with tetrahydrocannabinol (THC) at a terpene to THC weight/weight ratio in the range between 0.05:1 and 1:1.
Augmented activation was given as fold change. Fold change in potency is given as the ratio between the THC concentration required to evoke 50% of the maximal response in the presence of terpene and the THC concentration that evoked the same response in the absence of terpene.

[2] = molecular target: T2, hTRPA1 (Homo sapiens, UniProt O75762); test: Live-cell calcium imaging (Fura-2) of TRPA1 activation in TREx 293 cells
T2 construct: expressed in transfected cells; host or cells: TREx 293 cells, pcDNA4/TO vector, doxycycline-induced
T2 sequence (O75762 whole entry): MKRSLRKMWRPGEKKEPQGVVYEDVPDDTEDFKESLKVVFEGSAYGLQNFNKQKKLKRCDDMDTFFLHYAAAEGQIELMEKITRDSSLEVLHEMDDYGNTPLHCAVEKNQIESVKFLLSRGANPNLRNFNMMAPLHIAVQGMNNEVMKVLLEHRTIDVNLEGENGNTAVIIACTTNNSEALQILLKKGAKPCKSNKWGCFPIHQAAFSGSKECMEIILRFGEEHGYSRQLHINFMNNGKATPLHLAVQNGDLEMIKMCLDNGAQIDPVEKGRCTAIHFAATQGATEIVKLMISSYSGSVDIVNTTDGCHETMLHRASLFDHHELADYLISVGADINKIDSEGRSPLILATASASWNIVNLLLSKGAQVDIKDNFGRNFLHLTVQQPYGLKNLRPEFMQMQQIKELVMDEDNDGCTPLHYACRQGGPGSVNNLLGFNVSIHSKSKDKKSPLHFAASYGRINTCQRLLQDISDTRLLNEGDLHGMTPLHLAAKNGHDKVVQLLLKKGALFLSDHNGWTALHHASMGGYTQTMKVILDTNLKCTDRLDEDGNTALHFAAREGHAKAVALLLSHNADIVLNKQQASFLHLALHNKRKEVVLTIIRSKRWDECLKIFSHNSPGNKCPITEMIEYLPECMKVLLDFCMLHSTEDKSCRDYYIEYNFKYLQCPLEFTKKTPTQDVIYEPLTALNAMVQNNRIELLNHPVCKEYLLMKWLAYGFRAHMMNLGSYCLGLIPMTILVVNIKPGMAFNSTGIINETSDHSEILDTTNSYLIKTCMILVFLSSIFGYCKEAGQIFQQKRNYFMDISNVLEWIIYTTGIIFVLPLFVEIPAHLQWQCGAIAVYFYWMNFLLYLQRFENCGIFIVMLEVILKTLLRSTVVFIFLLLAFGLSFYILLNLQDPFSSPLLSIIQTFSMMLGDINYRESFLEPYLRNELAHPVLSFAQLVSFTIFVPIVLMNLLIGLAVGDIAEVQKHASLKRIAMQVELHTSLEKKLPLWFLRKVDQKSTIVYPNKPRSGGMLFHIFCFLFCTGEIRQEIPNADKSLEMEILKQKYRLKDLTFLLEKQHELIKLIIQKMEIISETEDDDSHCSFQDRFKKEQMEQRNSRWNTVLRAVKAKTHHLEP
Method: rTRPV1 or hTRPA1 were stably expressed in TREx 293 cells following the manufacturer's protocol (Invitrogen, MA, USA). Briefly, TREx host cell line (Invitrogen, MA, USA) was transfected with pcDNA4/TO containing the gene of interest using Mirus LT1 transfection reagent (Mirus Bio, WI, USA) with Opti-MEM I Reduced Serum Medium (Invitrogen, MA, USA). Successful recombination and maintenance were confirmed through zeocin (500 μg/ml; Invivogen, Toulouse, France) selection to establish a stably-transfected cell line. Cells were grown in DMEM (Sigma-Aldrich, MO, USA) supplemented with 10% FBS, 1% penicillin-streptomycin, 2 mM L-alanine L-glutamine, and 25 mM HEPES (pH 7.3) supplemented with 5 μg/ml blasticidin at 37° C. and 5% CO2. Cells were passaged twice per week. Three hours before analysis, cells were treated with doxycycline (0.2-1 μg/ml) to induce transgene expression.
Flip-in TREX293T cells were spotted at PDL (0.2 mg/ml)-coated imaging chambers (μ-slide, 8-well; Ibidi, Martinsried, Germany) and incubated for 1.5-2 h in a humidified incubator at 37° C. and 5% CO2. Cells were loaded with 3 μg/ml Fura-2 AM (Thermo Fisher Scientific) dissolved in Ringer solution. The imaging chamber was placed onto the inverted microscope (IX70; Olympus, Tokyo, Japan). Cells were illuminated with a 175W xenon arc lamp, and excitation wavelengths (340/380 nm) were selected by a Lambda DG-4 monochromatic wavelength changer (Sutter Instrument, Novato, CA, USA). Intracellular Ca2+ concentration was measured by digital video microfluorometry illuminated interline CCD camera (Exi Blue; QImaging, Surrey, BC, Canada) using MetaFluor fluorescence ratio imaging software (Molecular Devices). Dual images (340 and 380 nm excitation, 510 nm emission) were collected, and pseudocolor ratio-metric images were monitored every 4 s during the experiment. Data analysis was performed with MetaFluor fluorescence ratio imaging software. Data are presented as a normalized intensity of baseline fluorescence. All experiments were carried out at room temperature.
Data for THC (leftmost column) and for THC with a 1/10 concentration of a terpene are presented. Response amplitudes are normalized to the maximal activation obtained by administration of Allyl Isothiocyanate (AITC). Numbers in parentheses represent p values for the comparison of the TRPA1 activation for THC and for THC plus a 1/10 concentration terpene.

[3] = molecular target: T3, GIRK channel (Homo sapiens, UniProt P48051+P48549); test: Receptor-independent effect on GIRK current in oocytes expressing the GIRK channel but not the CB1 receptor
T3 construct: expressed in transfected cells; host or cells: Xenopus laevis oocytes injected with cRNA
T3 sequence (P48549 1-501): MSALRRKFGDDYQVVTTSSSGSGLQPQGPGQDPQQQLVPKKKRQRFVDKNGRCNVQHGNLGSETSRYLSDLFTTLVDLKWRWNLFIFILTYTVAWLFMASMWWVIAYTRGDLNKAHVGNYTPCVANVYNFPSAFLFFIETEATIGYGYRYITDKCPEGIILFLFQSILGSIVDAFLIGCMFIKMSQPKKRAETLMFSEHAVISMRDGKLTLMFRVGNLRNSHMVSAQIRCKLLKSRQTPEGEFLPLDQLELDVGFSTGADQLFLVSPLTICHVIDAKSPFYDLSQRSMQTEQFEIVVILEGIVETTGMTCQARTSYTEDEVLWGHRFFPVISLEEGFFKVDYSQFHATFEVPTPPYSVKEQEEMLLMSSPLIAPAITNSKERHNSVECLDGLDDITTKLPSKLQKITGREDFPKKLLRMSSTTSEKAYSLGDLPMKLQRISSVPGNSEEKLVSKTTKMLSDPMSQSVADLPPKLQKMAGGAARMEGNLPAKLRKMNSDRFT
T3 sequence (P48051 1-423): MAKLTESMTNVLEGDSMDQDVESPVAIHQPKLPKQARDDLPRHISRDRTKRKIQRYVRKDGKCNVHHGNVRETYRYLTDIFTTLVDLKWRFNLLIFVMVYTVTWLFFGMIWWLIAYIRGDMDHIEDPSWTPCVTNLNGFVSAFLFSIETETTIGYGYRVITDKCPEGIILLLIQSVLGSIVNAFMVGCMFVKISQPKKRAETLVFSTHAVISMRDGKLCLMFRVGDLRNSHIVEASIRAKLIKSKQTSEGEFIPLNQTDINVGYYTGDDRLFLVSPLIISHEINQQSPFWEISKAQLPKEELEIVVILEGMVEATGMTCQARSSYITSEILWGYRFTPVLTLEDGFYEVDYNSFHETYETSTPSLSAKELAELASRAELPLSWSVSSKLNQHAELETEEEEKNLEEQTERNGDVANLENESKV
Method: To do so, the effect of THC and a panel of various terpenes was measured on oocytes expressing the GIRK channel but not the CB1 receptor.

[4] = molecular target: T1, CB1 receptor; test: CB1 receptor activation by terpenes, CB1-mediated GIRK currents in Xenopus oocytes (two-electrode voltage clamp); settings: 10 μM terpene alone; response amplitude normalized to response obtained with 10 μM THC; Xenopus oocytes expressing CB1, GIRK1/2, Gαi3
Method: To test the possibility that the presence of various terpenes affects the activation of the CB1 receptor, the Inventors used Xenopus oocytes as a functional expression system. To this end, Xenopus oocytes were injected with cRNAs of proteins involved in the pathway leading to activation of K+ currents by CB1 receptor via βγ subunits of the G-proteins: The CB1 receptor, the two subunits of the GIRK channel (GIRK1 and GIRK2), and the Gαi3 subunit.
cDNA plasmids of the two subunits (GIRK1 and GIRK2) of the G protein-coupled inwardly-rectifying potassium (GIRK) receptor, the CB1 receptor, and the α subunit of the G-protein (Gαi3) were linearized with the appropriate restriction enzymes. The linearized plasmids were transcribed in vitro using a standard procedure.
X. laevis oocytes were isolated and incubated in NDE96 solution composed of ND96 (in mM: 96 NaCl, 2 KCl, 1 CaCl2, 1 MgCl2, 5 Hepes, with pH adjusted to 7.5 with NaOH) with the addition of 2.5 mM Na+ pyruvate, 100 units/ml penicillin, and 100 μg/ml streptomycin. A day after their isolation, the oocytes were injected with the relevant cRNAs. cRNAs of CB1 receptor (2 ng) and GIRK1 and GIRK2 (200 pg each) were injected. In addition, cRNA of Gαi3 (1000 pg) was injected to decrease the basal GIRK current (IK) and to improve the relative activation by the agonist (17).
Currents were measured 3-5 days after cRNA injection and were recorded using the standard two-electrode voltage clamp technique (Axoclamp 2B amplifier, Axon Instruments, Foster City, CA). Each oocyte was placed in the recording bath containing ND96 solution and was impaled with two electrodes pulled from 1.5-mm Clark capillaries (CEI, Pangboure, England). Both electrodes were filled with 3M KCl solution and the electrodes resistances were between 1-5 MΩ). The CB1-mediated GIRK currents were measured in a 24 mM K+ solution (in mM: 72 NaCl, 24 KCl, 1 CaCl2, 1 MgCl2, 5 Hepes, with pH adjusted to 7.5 with KOH). pCLAMP10 software (Axon Instruments) was used for data acquisition and analysis.
Next, the dependence of the THC-induced K+ current (ITHC) on THC concentration (dose-response) was measured. The oocyte was voltage-clamped to-80 mV in a low K+ (2 mM K+) solution, ND96. Basal GIRK current (IK) was developed upon replacement of the ND96 by the 24 mM K+ solution. This current represents the basal activation of GIRK channel by endogenous βγ subunits present in the oocytes. Then, five concentrations of THC were applied sequentially, giving rise to ITHC. This current was terminated upon washout of THC. Employing this basic experimental protocol, a full dose-response curve was constructed. To be able to compare between oocytes, ITHC at any particular THC concentration was normalized to ITHC obtained at a 10 μM, defined as the reference response.
Next, the effect of terpenes on CB1 activation was assessed.
Response amplitudes were normalized to the response obtained with 10 μM THC.

[5] = 8 μM THC with a 1/10 concentration of the terpene
[6] = 30 μM THC with a 1/10 concentration of the terpene

SMILES	Fold change of THC potency by terpene, at terpene:THC ratio of 1:10 [1]	Response to 10 μM terpene [4]	further results
C=C1CCC2(C(C)C)CC12 (centres unmarked) [sabinene]	1.685	–	–
CC1CCC(C(C)C)C(O)C1 (centres unmarked) [Menthol]	–	–	TRPA1 response amplitude normalized to maximal activation by AITC [2, 5]: 0.44
CCCCCc1cc(O)c2c(c1)OC(C)(C)[C@@H]1CCC(C)=C[C@@H]21 [THC, tetrahydrocannabinol, reference compound]	–	–	TRPA1 response amplitude normalized to maximal activation by AITC ([2]; 8 μM THC alone): 0.35; TRPA1 response amplitude normalized to maximal activation by AITC ([2]; 30 μM THC alone): 0.8; Effect on the GIRK current [3]: None of these compounds showed an effect on the GIRK current
CC1(C)C2CCC1(C)C(O)C2 (centres unmarked) [borneol]	4.469	–	–
CC(C)=CCC/C(C)=C/CO [geraniol]	1.576	0.31 ± 0.08	–
C=CC(C)(O)CCC=C(C)C (centres unmarked) [linalool]	1.553	–	TRPA1 response amplitude normalized to maximal activation by AITC [2, 5]: 0.44; TRPA1 response amplitude normalized to maximal activation by AITC [2, 6]: 0.93
CC1=CCC2CC1C2(C)C (stereo not drawn) [α-pinene]	–	0.29 ± 0.03	–
C=C1CCC2CC1C2(C)C (stereo not drawn) [β-pinene]	–	0.29 ± 0.06	–
CC12CCC(CC1)C(C)(C)O2 [eucalyptol]	–	0.41 ± 0.04	TRPA1 response amplitude normalized to maximal activation by AITC [2, 5]: 0.48; TRPA1 response amplitude normalized to maximal activation by AITC [2, 6]: 0.93
CC1=CCC(=C(C)C)CC1 [terpinolene]	–	0.45 ± 0.02	–
CC(C)=CCCC(C)=CC=O [Citral]	–	–	TRPA1 response amplitude normalized to maximal activation by AITC [2, 6]: 0.96
C=C(C)[C@H]1CC=C(C)CC1 [limonene]	3.369	0.23 ± 0.02	–
C=CC(=C)CCC=C(C)C [myrcene]	–	0.26 ± 0.07	–
C=CC(C)=CCC=C(C)C [ocimene]	2.639	0.36 ± 0.05	–
